Columns and labels:
Assay type in all cases: cell-based
[1] = tested on: Bacillus subtilis subsp. spizizenii ATCC 6633 spore; assay: Testing for antimicrobial activity against spores (sporicidal suspension test)
Method: Spore suspensions were prepared based on the general principles of European quantitative suspension tests for evaluation of sporicidal activity (BS EN14347:2005: chemical disinfectants and antiseptics, basic sporicidal activity, test method and requirements (phase 1, step 1), London: British Standards Institute). Tryptone soya broth was seeded with spores from a previous batch and incubated at 37° C. to obtain an exponential growth phase culture. 10 mL of this culture was transferred into a Roux flask containing manganese-sulfate sporulation agar so that the inoculum came into contact with all of the surface of the agar. The Roux flasks were incubated at 37° C. for 2 days and for 21 days at 30° C., cultures were recovered, checked for sporulation and stored in water at 5° C. Sporicidal activity was then assessed using the method outlined previously (but with half the volume/weight of hydrogen peroxide, water, organism and catalyst) using 5 to 7.5% w/v hydrogen peroxide (see testing antimicrobial activity section). After neutralisation, a 1 mL sample was added to 12 to 15 mL of melted tryptone soya agar cooled to 45° C. Petri dishes were incubated for a minimum of 4 days and a maximum of 7 days at 37° C. and the log10 reduction in bacterial spore numbers calculated.

[2] = tested on: Pseudomonas aeruginosa ATCC 15442; assay: Antimicrobial activity of PAN catalyst under buffered neutral pH conditions at room temperature and 35° C.; settings: 0.5% w/v H2O2; for log reduction: 35° C., held at neutral pH; for Mean log10 reduction in CFU/ml: room temperature, buffered at neutral pH
Method: Experiments were conducted using the method outlined previously (see testing antimicrobial activity section), but hydrogen peroxide and catalyst were prepared in phosphate buffer solution. Experiments were carried out at room temperature and 35° C.

[3] = tested on: Escherichia coli ATCC 10536; assay: Antimicrobial activity of PAN catalyst during reuse; settings: 0.2% w/v H2O2, no air
Method: (§1) PAN catalyst was assessed for antimicrobial activity at first use, 48 hours after first use, 48 hours after second use and six months after first use using the same experimental conditions as described previously (see testing antimicrobial activity section).

[4] = tested on: Staphylococcus aureus ATCC 6538; assay: as above; settings: room temperature, 1% w/v H2O2, no air
Method: as §1

Q: `OO` [Example H2O2, hydrogen peroxide] was tested. Which “Mean log10 reduction in CFU/ml” value ([1]; 5% w/v H2O2, no air, 10 min) did it give?
A: Its value is 1.02 (0.03) log10 CFU/ml.

Q: And the “Mean log10 reduction in CFU/ml” value ([1]; 5% w/v H2O2, no air, 30 min)?
A: Its value is 1.26 (0.12) log10 CFU/ml.

Q: What about the “Mean log10 reduction in CFU/ml” value ([1]; 5% w/v H2O2, no air, 60 min) of the same compound?
A: The value was 1.90 (0.09) log10 CFU/ml.

Q: What about the “Mean log10 reduction in CFU/ml” value ([1]; 5% w/v H2O2, no air, 120 min) of the same compound?
A: The value was 3.45 (0.27) log10 CFU/ml.

Q: And the “Mean log10 reduction in CFU/ml” value ([1]; 5% w/v H2O2, no air, 120 min, listed as hydrogen peroxide)?
A: The value was 3.45 log10 CFU/ml.

Q: What about the “Mean log10 reduction in CFU/ml” value ([1]; 7.5% w/v H2O2, no air, 10 min) of the same compound?
A: Its value is 0.04 (0.11) log10 CFU/ml.

Q: What about the “Mean log10 reduction in CFU/ml” value ([1]; 7.5% w/v H2O2, no air, 30 min) of the same compound?
A: Its value is 0.19 (0.08) log10 CFU/ml.

Q: And the “Mean log10 reduction in CFU/ml” value ([1]; 7.5% w/v H2O2, no air, 60 min)?
A: Its value is 0.95 (0.01) log10 CFU/ml.

Q: What about the “Mean log10 reduction in CFU/ml” value ([1]; 7.5% w/v H2O2, no air, 120 min) of the same compound?
A: Its value is 4.22 (0.71) log10 CFU/ml.

Q: And the “Mean log10 reduction in CFU/ml” value ([1]; 7.5% w/v H2O2, no air, 120 min, listed as hydrogen peroxide)?
A: Its value is 4.22 log10 CFU/ml.

Q: And the log reduction ([2]; air, 20 min)?
A: Its log reduction is 3.13 log.

Q: What about the log reduction ([2]; air, 40 min) of the same compound?
A: Its log reduction is 3.41 log.

Q: And the log reduction ([2]; no air, 50 min)?
A: Its log reduction is 3.90 log.

Q: And the “Mean log10 reduction in CFU/ml” value ([2]; air 2.5 L/min, 10 min)?
A: The value was 1.37 log10 CFU/ml.

Q: And the “Mean log10 reduction in CFU/ml” value ([2]; air 2.5 L/min, 20 min)?
A: The value was 1.46 log10 CFU/ml.

Q: And the “Mean log10 reduction in CFU/ml” value ([2]; air 2.5 L/min, 30 min)?
A: Its value is 1.71 log10 CFU/ml.

Q: And the “Mean log10 reduction in CFU/ml” value ([2]; air 2.5 L/min, 40 min)?
A: Its value is 1.61 log10 CFU/ml.

Q: And the “Mean log10 reduction in CFU/ml” value ([2]; air 2.5 L/min, 50 min)?
A: Its value is 1.75 log10 CFU/ml.

Q: What about the “Mean log10 reduction in CFU/ml” value ([2]; air 2.5 L/min, 60 min) of the same compound?
A: The value was 1.90 log10 CFU/ml.

Q: And the “Mean log10 reduction in CFU/ml” value ([2]; no air, 10 min)?
A: The value was 1.08 log10 CFU/ml.

Q: And the “Mean log10 reduction in CFU/ml” value ([2]; no air, 20 min)?
A: Its value is 1.49 log10 CFU/ml.

Q: And the “Mean log10 reduction in CFU/ml” value ([2]; no air, 30 min)?
A: Its value is 1.69 log10 CFU/ml.

Q: What about the “Mean log10 reduction in CFU/ml” value ([2]; no air, 40 min) of the same compound?
A: Its value is 1.79 log10 CFU/ml.

Q: What about the “Mean log10 reduction in CFU/ml” value ([2]; no air, 50 min) of the same compound?
A: The value was 1.92 log10 CFU/ml.

Q: And the “Mean log10 reduction in CFU/ml” value ([2]; no air, 60 min)?
A: Its value is 1.85 log10 CFU/ml.

Q: What about the “Mean log10 reduction in CFU/ml” value ([3]; 35° C., 10 min) of the same compound?
A: The value was 2.46 log10 CFU/ml.

Q: And the “Mean log10 reduction in CFU/ml” value ([3]; 35° C., 20 min)?
A: Its value is 3.77 log10 CFU/ml.

Q: And the “Mean log10 reduction in CFU/ml” value ([3]; 35° C., 30 min)?
A: The value was “≧5.30 log10 CFU/ml”.

Q: What about the “Mean log10 reduction in CFU/ml” value ([3]; 35° C., 30 min, listed as hydrogen peroxide) of the same compound?
A: The value was “greater than or equal to 5.30 log10 CFU/ml”.

Q: And the “Mean log10 reduction in CFU/ml” value ([3]; 35° C., 40 min)?
A: The value was >5.50 log10 CFU/ml.

Q: And the “Mean log10 reduction in CFU/ml” value ([3]; 35° C., 50 min)?
A: Its value is >5.50 log10 CFU/ml.

Q: What about the “Mean log10 reduction in CFU/ml” value ([3]; 35° C., 60 min) of the same compound?
A: The value was >5.50 log10 CFU/ml.

Q: And the “Mean log10 reduction in CFU/ml” value ([3]; room temperature, 10 min)?
A: The value was 1.01 log10 CFU/ml.

Q: And the “Mean log10 reduction in CFU/ml” value ([3]; room temperature, 20 min)?
A: The value was 2.08 log10 CFU/ml.

Q: And the “Mean log10 reduction in CFU/ml” value ([3]; room temperature, 30 min)?
A: Its value is 3.28 log10 CFU/ml.

Q: What about the “Mean log10 reduction in CFU/ml” value ([3]; room temperature, 40 min) of the same compound?
A: The value was 4.00 log10 CFU/ml.

Q: What about the “Mean log10 reduction in CFU/ml” value ([3]; room temperature, 50 min) of the same compound?
A: Its value is 5.17 log10 CFU/ml.

Q: What about the “Mean log10 reduction in CFU/ml” value ([3]; room temperature, 60 min) of the same compound?
A: Its value is >5.50 log10 CFU/ml.

Q: And the “Mean log10 reduction in CFU/ml” value ([4]; 10 min)?
A: The value was 0.54 log10 CFU/ml.

Q: What about the “Mean log10 reduction in CFU/ml” value ([4]; 20 min) of the same compound?
A: The value was 1.18 log10 CFU/ml.

Q: What about the “Mean log10 reduction in CFU/ml” value ([4]; 30 min) of the same compound?
A: The value was 2.68 log10 CFU/ml.

Q: And the “Mean log10 reduction in CFU/ml” value ([4]; 40 min)?
A: Its value is 3.56 log10 CFU/ml.

Q: And the “Mean log10 reduction in CFU/ml” value ([4]; 50 min)?
A: Its value is 4.62 log10 CFU/ml.

Q: And the “Mean log10 reduction in CFU/ml” value ([4]; 60 min)?
A: The value was 5.08 log10 CFU/ml.

Source: patent publication US8513303B2, “Antimicrobial agent” (De Montfort University, priority 2007, dated 2013)
